Experimental findings from patent US12221453B2, “Substituted pyrazolo[5′,1′:2,3]pyrimido[5,4-b][1,4]oxazines as TYK2 inhibitors” (TAKEDA PHARMACEUTICAL COMPANY LIMITED, priority 2018, dated 2025) are described below.

Bounds are passed on as bounds.

The assay deals with IL-12 induced STAT4 phosphorylation mediated by TYK2/JAK2. Briefly: IL-12 induced pSTAT4 in human PBMC. The note with it: 1 hr compound, 1.7 ng/mL IL-12 for 30 minutes. The format is cell-based. A digest of the protocol:
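Thawed human PBMC were pre-incubated with compound for 1 hr at 37 °C (0.1% DMSO), then stimulated with 1.7 ng/mL IL-12 for 30 minutes. Phospho-STAT4 and total STAT4 were measured in cell lysates by MSD.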

`CNc1cc(-c2cn([C@H]3COC[C@@H]3OC)c3ncccc23)nc2c(C(=O)N[C@H]3CC[C@@H]3F)cnn12` [Compound I-523]: the IC50 was less than 0.1 µM. With `CNc1cc(-c2cn([C@H]3COC[C@@H]3OC)c3ncccc23)nc2c(C(=O)NC3CC[C@H]3F)cnn12` (stereo partly shown) [Compound I-528] the figure was less than 0.1 µM; with `CNc1cc(-c2cn([C@H]3COC[C@@H]3OC)c3ncccc23)nc2c(C(=O)N[C@H]3CC[C@H]3F)cnn12` [Compound I-529], less than 0.1 µM; with `CNc1cc(-c2cn([C@H]3COC[C@@H]3OC)c3ncccc23)nc2c(C(=O)N[C@@H]3CC[C@@H]3F)cnn12` [Compound I-530], less than 0.1 µM. Turning to `CNc1cc(-c2cn([C@@H]3COC[C@H]3OC)c3ncccc23)nc2c(C(=O)NC3CC[C@H]3F)cnn12` (stereo partly shown) [Compound I-531], the IC50 is less than 0.1 µM. Next, `CNc1cc(-c2cn([C@@H]3CCOC[C@H]3O)c3ncccc23)nc2c(C(=O)N[C@H]3CC[C@@H]3F)cnn12` [Compound I-538]: less than 0.1 µM. On to `CNc1cc(-c2cn([C@H]3CCOC[C@H]3OC)c3ncccc23)nc2c(C(=O)NC3CC[C@@H]3F)cnn12` (stereo partly shown) [Compound I-546], for which the IC50 is less than 0.1 µM. Next, `CNc1cc(-c2cn([C@@H]3CC3(F)F)c3ncccc23)nc2c(C(=O)NC3CC[C@H]3O)cnn12` (stereo partly shown) [Compound I-548]: less than 0.1 µM; `CNc1cc(-c2cn([C@@H]3CC3(F)F)c3ncccc23)nc2c(C(=O)N[C@H]3CC[C@H]3O)cnn12` [Compound I-549]: less than 0.1 µM; `CNc1cc(-c2cn([C@H]3CC3(F)F)c3ncccc23)nc2c(C(=O)N[C@H]3CC[C@H]3O)cnn12` [Compound I-552]: less than 0.1 µM. Next, `CNc1cc(-c2cn(C3COC3)c3ncccc23)nc2c(C(=O)N[C@H]3CC[C@H]3O)cnn12` [Compound I-555]: less than 0.1 µM; `CNc1cc(-c2cn(C3COC3)c3ncccc23)nc2c(C(=O)N[C@H]3CC[C@@H]3O)cnn12` [Compound I-558]: less than 0.1 µM. Turning to `CNc1cc(-c2cn([C@@H]3COC[C@@H]3F)c3ncccc23)nc2c(C(=O)N[C@H]3CC[C@H]3O)cnn12` [Compound I-571], the IC50 was less than 0.1 µM. Compound `CNc1cc(-c2cn([C@H]3COC[C@H]3F)c3ncccc23)nc2c(C(=O)NC3CC[C@H]3O)cnn12` (stereo partly shown) [Compound I-573] had an IC50 of less than 0.1 µM. With `CNc1cc(-c2cn([C@H]3COC[C@H]3F)c3ncccc23)nc2c(C(=O)N[C@H]3CC[C@H]3O)cnn12` [Compound I-574] the figure was less than 0.1 µM; with `CNc1cc(-c2cn([C@H]3C[C@@H](O)C3)c3ncccc23)nc2c(C(=O)N[C@H]3CC[C@@H]3OC)cnn12` [Compound I-606], less than 0.1 µM. Next, `CNc1cc(-c2cn(C3CN(C)C3)c3ncccc23)nc2c(C(=O)NC3CC[C@@H]3OC)cnn12` (stereo partly shown) [Compound I-608]: less than 0.1 µM. Next, `CNc1cc(-c2cn([C@@H]3CCOC3)c3ncccc23)nc2c(C(=O)NC3CC[C@@H]3OC)cnn12` (stereo partly shown) [Compound I-609]: less than 0.1 µM; `CNc1cc(-c2cn([C@@H]3CCOC3)c3ncccc23)nc2c(C(=O)N[C@H]3CC[C@@H]3OC)cnn12` [Compound I-610]: less than 0.1 µM; `CNc1cc(-c2cn([C@H]3CCOC3)c3ncccc23)nc2c(C(=O)NC3CC[C@@H]3OC)cnn12` (stereo partly shown) [Compound I-612]: less than 0.1 µM. `CNc1cc(-c2cn([C@H]3CCOC3)c3ncccc23)nc2c(C(=O)N[C@H]3CC[C@@H]3OC)cnn12` [Compound I-613] displayed a half-maximal inhibitory concentration (IC50) of less than 0.1 µM. Next, `CNc1cc(-c2cn([C@@H]3CCN(C)C3)c3ncccc23)nc2c(C(=O)NC3CC[C@@H]3OC)cnn12` (stereo partly shown) [Compound I-615]: less than 0.1 µM; `CNc1cc(-c2cn([C@@H]3CCN(C)C3)c3ncccc23)nc2c(C(=O)N[C@H]3CC[C@@H]3OC)cnn12` [Compound I-616]: less than 0.1 µM. Next, `CNc1cc(-c2cn([C@H]3CCN(C)C3)c3ncccc23)nc2c(C(=O)NC3CC[C@@H]3OC)cnn12` (stereo partly shown) [Compound I-618]: less than 0.1 µM; `CNc1cc(-c2cn([C@H]3CCN(C)C3)c3ncccc23)nc2c(C(=O)N[C@H]3CC[C@@H]3OC)cnn12` [Compound I-619]: less than 0.1 µM. In turn, `CNc1cc(-c2cn([C@@H]3COC[C@@H]3F)c3ncccc23)nc2c(C(=O)NC3CC[C@@H]3OC)cnn12` (stereo partly shown) [Compound I-621] returned an IC50 of less than 0.1 µM. For the compound `CNc1cc(-c2cn([C@@H]3COC[C@@H]3F)c3ncccc23)nc2c(C(=O)N[C@H]3CC[C@@H]3OC)cnn12` [Compound I-622], the IC50 was less than 0.1 µM. `CNc1cc(-c2cn([C@H]3COC[C@H]3F)c3ncccc23)nc2c(C(=O)N[C@H]3CC[C@@H]3OC)cnn12` [Compound I-625] gave an IC50 of less than 0.1 µM.

On to `CNc1cc(-c2cn([C@@H]3COC[C@H]3O)c3ncccc23)nc2c(C(=O)N[C@@H]3CC[C@H]3OC)cnn12` [Compound I-629], for which the IC50 was less than 0.1 µM. The compound `CNc1cc(-c2cn([C@H]3COC[C@@H]3O)c3ncccc23)nc2c(C(=O)N[C@H]3CC[C@@H]3OC)cnn12` [Compound I-631] yielded an IC50 of less than 0.1 µM.

On to `CNc1cc(-c2cn([C@H]3COC[C@@H]3OC)c3ncccc23)nc2c(C(=O)NC3CC[C@@H]3OC)cnn12` (stereo partly shown) [Compound I-633], for which the IC50 is less than 0.1 µM. Next, `CNc1cc(-c2cn([C@H]3COC[C@@H]3OC)c3ncccc23)nc2c(C(=O)N[C@H]3CC[C@@H]3OC)cnn12` [Compound I-634]: less than 0.1 µM. Next, `CNc1cc(-c2cn([C@@H]3COC[C@H]3OC)c3ncccc23)nc2c(C(=O)NC3CC[C@@H]3OC)cnn12` (stereo partly shown) [Compound I-636]: less than 0.1 µM; `CNc1cc(-c2cn([C@@H]3COC[C@H]3OC)c3ncccc23)nc2c(C(=O)N[C@H]3CC[C@@H]3OC)cnn12` [Compound I-637]: less than 0.1 µM. Next, `CNc1cc(-c2cn([C@H]3CN(C)C[C@@H]3F)c3ncccc23)nc2c(C(=O)N[C@H]3CC[C@@H]3OC)cnn12` [Compound I-640]: less than 0.1 µM. Consider `CNc1cc(-c2cn([C@@H]3CN(C)C[C@H]3F)c3ncccc23)nc2c(C(=O)NC3CC[C@@H]3OC)cnn12` (stereo partly shown) [Compound I-642], for which the IC50 was less than 0.1 µM. Next, `CNc1cc(-c2cn([C@@H]3CN(C)C[C@H]3F)c3ncccc23)nc2c(C(=O)N[C@H]3CC[C@@H]3OC)cnn12` [Compound I-643]: less than 0.1 µM; `CNc1cc(-c2cn([C@@H]3CN(C)C[C@H]3OC)c3ncccc23)nc2c(C(=O)NC3CC[C@@H]3OC)cnn12` (stereo partly shown) [Compound I-645]: less than 0.1 µM; `CNc1cc(-c2cn([C@@H]3CN(C)C[C@H]3OC)c3ncccc23)nc2c(C(=O)N[C@H]3CC[C@@H]3OC)cnn12` [Compound I-646]: less than 0.1 µM. With `CNc1cc(-c2cn([C@H]3CN(C)C[C@@H]3OC)c3ncccc23)nc2c(C(=O)N[C@H]3CC[C@@H]3OC)cnn12` [Compound I-649] the figure was less than 0.1 µM; with `CNc1cc(-c2cn([C@H]3CCOC[C@@H]3F)c3ncccc23)nc2c(C(=O)NC3CC[C@@H]3OC)cnn12` (stereo partly shown) [Compound I-651], less than 0.1 µM. With `CNc1cc(-c2cn([C@@H]3CCOC[C@H]3F)c3ncccc23)nc2c(C(=O)NC3CC[C@@H]3OC)cnn12` (stereo partly shown) [Compound I-652] the figure was less than 0.1 µM; with `CNc1cc(-c2cn([C@H]3CCOC[C@@H]3OC)c3ncccc23)nc2c(C(=O)N[C@H]3CC[C@@H]3OC)cnn12` [Compound I-663], less than 0.1 µM.

As a reminder, the IC50 is the point on the concentration scale where inhibition reaches its midpoint. Low readings indicate inhibition by little substance, high ones a need for much substance.
